These results are taken from ChEMBL document CHEMBL1201862, “PubChem BioAssay data set” (2004).

Active and inactive are the calls of the source.

The target of one experiment is Melanocortin receptor 4 (Homo sapiens, UniProt P32245). Kind of experiment: MC4R antagonist potency on cAMP, dose response, cell-based, TR-FRET, biased antagonists (AID 602298).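 Note: antagonist potency against agonist-stimulated cAMP production.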 The class given is functional. (TR-FRET usually uses a lanthanide donor and a delayed reading to cut background.)
Experiment [1] in a line: nonselective inhibitors of cellular cAMP signaling, dose response, counter-screen for MC4R biased antagonist project, cell-based, TR-FRET cAMP detection (AID 602305).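 Note: U2OS cells stimulated with forskolin near its EC80 as the cAMP inducer; potency is for inhibition of forskolin-stimulated cAMP signaling.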 The class given is functional. Background: A counterscreen serves to expose hits that act by an unwanted route or on another target.
For the next experiment, the system named is HEK293. The experiment in a line: inhibitors of LMP1-driven NF-kB reporter, dose response, cell-based, HEK293, luciferase, cherry-pick (AID 588343). The class given is functional. As to conditions: Homo sapiens.
Experiment [2] addresses Latent membrane protein 1 (Human herpesvirus 4 (strain B95-8), UniProt P03230). Kind of experiment: TES1-eGFP NF-kB reporter inhibition versus Tet-On dsRED, dose response, selectivity assay for LMP1 NF-kB inhibitor project, imaging, HEK293T, dual-color eGFP/dsRED, cherry-picks (AID 588398). In kind it is functional, cell-based.
Experiment [3] addresses Serine/threonine-protein kinase pim-1 (Homo sapiens, UniProt P11309). The class given is functional.
Experiment [4] has as its target Cell division cycle 7-related protein kinase (Homo sapiens, UniProt O00311). The class given is functional.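 Note: value obtained from a kinome-wide kinase panel.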
Experiment [5] concerns the target Homeodomain-interacting protein kinase 2 (Homo sapiens, UniProt Q9H2X6). In kind it is functional.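 Note: measured within a kinome-wide kinase profiling panel, HIPK2 being one panel member.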
Experiment [6] deals with Interleukin-1 receptor-associated kinase 4 (Homo sapiens, UniProt Q9NWZ3). In kind it is functional.
In experiment [7] the target is Glycogen synthase kinase-3 beta (Homo sapiens, UniProt P49841). In kind it is functional.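 Note: value comes from a broad kinome profiling panel, with GSK3B as the panel member.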
The target of experiment [8] is cAMP-dependent protein kinase catalytic subunit alpha (Homo sapiens, UniProt P17612). The class given is functional.
Experiment [9] deals with Dual specificity protein kinase CLK4 (Homo sapiens, UniProt Q9HAZ1). The class given is functional.
Experiment [10] deals with Mitogen-activated protein kinase kinase kinase kinase 4 (Homo sapiens, UniProt O95819). The class given is functional.
The next experiment has as its system CHO. The experiment in a line: cytotoxicity in TLR9-MyD88 CHO cells, dose response, cytotoxicity control for TLR9-MyD88 binding inhibitor project, cell-based, luminescence (AID 588339).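 Note: CHO cells stably coexpressing TLR9 and MyD88 fusions from primary screen; compound exposure lasted 48 hours before viability readout.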 In kind it is functional, hamster. As to conditions: Cricetulus griseus.
A further experiment has as its target Beta Lactamase (Pseudomonas aeruginosa, UniProt Q932Y6). Kind of experiment: beta-lactamase reporter inhibitor potency, dose response, artefact control for TLR9-MyD88 binding inhibitor project, BLA reporter cells, FRET fluorescence (AID 588341).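 Note: cell based assay in CHO-K1 cells stably expressing beta-lactamase.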 In kind it is cell-based.
Experiment [11] deals with T1, Corticotropin-releasing factor receptor 2/Corticotropin-releasing factor-binding protein (Homo sapiens, UniProt P24387+Q13324).
T1 sequence (Q13324 whole entry): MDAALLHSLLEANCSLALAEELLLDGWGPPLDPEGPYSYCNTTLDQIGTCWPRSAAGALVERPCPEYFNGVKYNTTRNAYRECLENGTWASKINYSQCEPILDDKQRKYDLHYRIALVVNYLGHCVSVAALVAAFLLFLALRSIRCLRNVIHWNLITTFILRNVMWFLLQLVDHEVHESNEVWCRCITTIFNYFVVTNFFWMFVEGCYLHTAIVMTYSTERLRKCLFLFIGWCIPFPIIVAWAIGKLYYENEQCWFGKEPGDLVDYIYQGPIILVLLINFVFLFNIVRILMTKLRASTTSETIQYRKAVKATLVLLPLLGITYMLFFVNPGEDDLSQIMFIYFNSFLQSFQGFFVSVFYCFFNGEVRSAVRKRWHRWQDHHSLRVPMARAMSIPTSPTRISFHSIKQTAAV
T1 sequence (P24387 whole entry): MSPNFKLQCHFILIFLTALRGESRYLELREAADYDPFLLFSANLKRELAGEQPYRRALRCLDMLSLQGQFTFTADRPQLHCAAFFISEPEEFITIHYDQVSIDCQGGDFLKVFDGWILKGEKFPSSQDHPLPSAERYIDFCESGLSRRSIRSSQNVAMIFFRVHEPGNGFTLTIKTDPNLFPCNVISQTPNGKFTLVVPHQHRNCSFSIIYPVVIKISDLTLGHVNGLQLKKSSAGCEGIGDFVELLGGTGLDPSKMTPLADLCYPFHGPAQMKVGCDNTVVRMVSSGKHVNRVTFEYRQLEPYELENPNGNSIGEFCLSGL
Kind of experiment: activators of CRF receptor 2 with binding protein – uHTS hits, confirmation (AID 602473). The class given is functional. As to conditions: read-out: EC50_Mean.

The target of experiment [12] is T2, Sentrin-specific protease 8 (Homo sapiens, UniProt Q96LD8).
T2 sequence (Q96LD8 whole entry): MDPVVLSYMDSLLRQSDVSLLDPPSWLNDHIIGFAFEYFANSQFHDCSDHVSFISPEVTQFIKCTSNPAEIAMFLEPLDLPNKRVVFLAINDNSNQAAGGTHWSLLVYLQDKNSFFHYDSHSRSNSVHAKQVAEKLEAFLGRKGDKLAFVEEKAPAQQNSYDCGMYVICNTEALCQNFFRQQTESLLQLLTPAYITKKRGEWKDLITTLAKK
The experiment in a line: SENP8 protease inhibitors, SAR follow-up, biochemical, luminescence (AID 504501). The class given is functional.

A further experiment concerns the target T3, Caspase-3 (Homo sapiens, UniProt P42574).
T3 sequence (P42574 whole entry): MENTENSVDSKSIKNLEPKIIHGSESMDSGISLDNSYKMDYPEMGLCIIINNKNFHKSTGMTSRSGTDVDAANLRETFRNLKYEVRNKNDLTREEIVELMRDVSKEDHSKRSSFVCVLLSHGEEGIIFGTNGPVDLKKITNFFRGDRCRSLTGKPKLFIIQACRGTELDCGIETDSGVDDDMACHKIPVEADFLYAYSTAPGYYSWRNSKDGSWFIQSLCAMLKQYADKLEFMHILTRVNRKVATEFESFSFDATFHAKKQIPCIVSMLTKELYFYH
Kind of experiment: SAR Analysis of small molecule inhibitors of Sentrin-specific proteases (SENPs) using a Caspase-3 Selectivity assay. [Related pubchem assays (depositor defined):AID2540, AID2599, AID434973, AID489001]. The class given is functional.

The target in experiment [13] is T4, Sentrin-specific protease 6 (Homo sapiens, UniProt Q9GZR1).
T4 sequence (Q9GZR1 whole entry): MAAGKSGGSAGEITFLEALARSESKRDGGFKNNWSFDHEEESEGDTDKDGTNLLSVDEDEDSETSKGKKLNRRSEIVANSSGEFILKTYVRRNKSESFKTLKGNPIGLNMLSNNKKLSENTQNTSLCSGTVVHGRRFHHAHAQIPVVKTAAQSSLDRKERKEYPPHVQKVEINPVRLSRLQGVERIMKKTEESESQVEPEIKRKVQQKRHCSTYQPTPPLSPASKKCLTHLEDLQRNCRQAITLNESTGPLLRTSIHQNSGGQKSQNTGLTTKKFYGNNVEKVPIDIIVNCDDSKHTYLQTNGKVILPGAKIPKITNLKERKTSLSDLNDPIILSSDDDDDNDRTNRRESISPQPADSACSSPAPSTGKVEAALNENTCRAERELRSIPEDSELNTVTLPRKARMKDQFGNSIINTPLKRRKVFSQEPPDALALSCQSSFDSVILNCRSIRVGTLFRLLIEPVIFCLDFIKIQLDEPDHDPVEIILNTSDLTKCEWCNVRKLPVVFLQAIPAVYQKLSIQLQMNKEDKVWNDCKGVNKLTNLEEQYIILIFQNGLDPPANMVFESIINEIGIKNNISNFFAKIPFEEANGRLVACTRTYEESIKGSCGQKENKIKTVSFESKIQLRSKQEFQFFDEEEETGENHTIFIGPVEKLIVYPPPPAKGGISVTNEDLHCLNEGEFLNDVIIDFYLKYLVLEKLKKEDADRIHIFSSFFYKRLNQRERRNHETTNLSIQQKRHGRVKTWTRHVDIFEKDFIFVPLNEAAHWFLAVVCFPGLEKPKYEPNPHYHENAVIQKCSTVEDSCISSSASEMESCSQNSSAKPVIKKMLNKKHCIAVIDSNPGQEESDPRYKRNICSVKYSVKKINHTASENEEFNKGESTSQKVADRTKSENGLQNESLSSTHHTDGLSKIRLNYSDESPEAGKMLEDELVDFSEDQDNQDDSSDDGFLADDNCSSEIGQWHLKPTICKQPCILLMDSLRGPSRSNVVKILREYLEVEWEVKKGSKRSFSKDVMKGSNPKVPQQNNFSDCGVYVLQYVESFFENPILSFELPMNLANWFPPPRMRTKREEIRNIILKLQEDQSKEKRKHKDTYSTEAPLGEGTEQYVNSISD
Kind of experiment: SAR Analysis of small molecule inhibitors of Sentrin-specific protease 6 (SENP6) using a Luminescent assay. [Related pubchem assays (depositor defined):AID2582, AID2599]. The class given is functional.

Experiment [14] addresses T5, Sentrin-specific protease 7 (Homo sapiens, UniProt Q9BQF6).
T5 sequence (Q9BQF6 whole entry): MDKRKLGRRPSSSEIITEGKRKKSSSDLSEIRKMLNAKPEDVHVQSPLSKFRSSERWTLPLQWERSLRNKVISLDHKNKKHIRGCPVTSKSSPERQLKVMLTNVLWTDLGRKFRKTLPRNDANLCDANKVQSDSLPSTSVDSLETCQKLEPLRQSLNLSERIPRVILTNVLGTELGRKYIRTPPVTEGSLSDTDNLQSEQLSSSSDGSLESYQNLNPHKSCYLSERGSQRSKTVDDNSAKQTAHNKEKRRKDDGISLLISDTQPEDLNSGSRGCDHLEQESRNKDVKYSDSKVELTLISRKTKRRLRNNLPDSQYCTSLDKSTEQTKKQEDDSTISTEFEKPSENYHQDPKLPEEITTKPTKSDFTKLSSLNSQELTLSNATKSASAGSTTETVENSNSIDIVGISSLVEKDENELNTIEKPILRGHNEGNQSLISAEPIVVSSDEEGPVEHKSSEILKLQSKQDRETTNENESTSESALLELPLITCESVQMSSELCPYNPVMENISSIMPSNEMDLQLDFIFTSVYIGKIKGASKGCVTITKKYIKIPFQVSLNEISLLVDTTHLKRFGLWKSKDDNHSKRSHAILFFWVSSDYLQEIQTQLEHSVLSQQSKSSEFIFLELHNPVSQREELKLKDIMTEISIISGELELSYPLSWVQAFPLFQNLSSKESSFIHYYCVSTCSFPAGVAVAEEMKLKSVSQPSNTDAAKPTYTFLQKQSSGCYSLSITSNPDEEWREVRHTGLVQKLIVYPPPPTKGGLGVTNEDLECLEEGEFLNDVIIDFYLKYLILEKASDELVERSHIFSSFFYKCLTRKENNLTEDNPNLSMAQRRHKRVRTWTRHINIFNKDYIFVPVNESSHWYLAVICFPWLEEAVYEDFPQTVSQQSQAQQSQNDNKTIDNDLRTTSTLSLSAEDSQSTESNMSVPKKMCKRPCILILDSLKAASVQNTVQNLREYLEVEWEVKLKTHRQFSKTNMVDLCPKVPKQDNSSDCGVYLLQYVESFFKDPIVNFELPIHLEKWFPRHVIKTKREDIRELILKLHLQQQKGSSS
The experiment in a line: SENP7 protease inhibitors, SAR follow-up, biochemical, luminescence (AID 504497). In kind it is functional.

In another experiment the target is LIM domain kinase 1 (Homo sapiens, UniProt P53667). The experiment in a line: Navigating the Kinome. Panel member name: LIMK1. In kind it is functional.
In experiment [15] the target is Serine/threonine-protein kinase Chk1 (Homo sapiens, UniProt O14757). In kind it is functional.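 Note: measured as one member of a kinome-wide kinase profiling panel.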
In experiment [16] the target is Tyrosine-protein kinase JAK2 (Homo sapiens, UniProt O60674). The class given is functional.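 Note: JAK2 tested as one member of a kinase panel.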
Experiment [17] addresses Vascular endothelial growth factor receptor 2 (Homo sapiens, UniProt P35968). The class given is functional.
The target of experiment [18] is cAMP-dependent protein kinase catalytic subunit PRKX (Homo sapiens, UniProt P51817). In kind it is functional.
Experiment [19] concerns the target Leucine-rich repeat serine/threonine-protein kinase 2 (Homo sapiens, UniProt Q5S007). In kind it is functional.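 Note: value from a broad kinome-wide panel profiling study in which LRRK2 was one of the kinases tested.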
Experiment [20] has as its target Leukocyte tyrosine kinase receptor (Homo sapiens, UniProt P29376). The experiment in a line: Navigating the Kinome. Panel member name: LTK. The class given is functional.

Interleukin-1 receptor-associated kinase 4, sequence (Q9NWZ3 whole entry): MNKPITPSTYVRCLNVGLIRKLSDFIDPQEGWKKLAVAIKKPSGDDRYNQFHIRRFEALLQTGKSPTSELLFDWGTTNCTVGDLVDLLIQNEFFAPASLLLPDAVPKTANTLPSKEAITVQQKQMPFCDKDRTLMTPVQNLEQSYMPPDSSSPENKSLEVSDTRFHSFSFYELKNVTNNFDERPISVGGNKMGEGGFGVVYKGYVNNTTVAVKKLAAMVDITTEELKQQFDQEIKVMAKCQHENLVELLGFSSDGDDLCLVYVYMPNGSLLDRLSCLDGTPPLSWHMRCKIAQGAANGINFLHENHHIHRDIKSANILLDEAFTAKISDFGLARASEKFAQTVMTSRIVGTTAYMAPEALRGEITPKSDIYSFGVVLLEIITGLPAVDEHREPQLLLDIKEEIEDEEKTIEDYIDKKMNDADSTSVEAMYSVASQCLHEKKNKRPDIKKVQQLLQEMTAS
Latent membrane protein 1, sequence (P03230 whole entry): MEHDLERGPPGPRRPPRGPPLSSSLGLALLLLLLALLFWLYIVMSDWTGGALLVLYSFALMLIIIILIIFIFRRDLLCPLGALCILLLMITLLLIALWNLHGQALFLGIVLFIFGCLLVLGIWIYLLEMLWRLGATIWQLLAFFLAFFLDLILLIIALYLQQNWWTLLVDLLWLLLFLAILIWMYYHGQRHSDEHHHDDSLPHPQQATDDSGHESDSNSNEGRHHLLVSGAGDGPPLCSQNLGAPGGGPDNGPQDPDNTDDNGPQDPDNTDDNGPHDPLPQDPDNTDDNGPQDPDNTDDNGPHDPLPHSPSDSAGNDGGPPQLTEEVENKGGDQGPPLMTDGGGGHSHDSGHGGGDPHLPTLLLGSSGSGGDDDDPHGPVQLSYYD
cAMP-dependent protein kinase catalytic subunit PRKX, sequence (P51817 whole entry): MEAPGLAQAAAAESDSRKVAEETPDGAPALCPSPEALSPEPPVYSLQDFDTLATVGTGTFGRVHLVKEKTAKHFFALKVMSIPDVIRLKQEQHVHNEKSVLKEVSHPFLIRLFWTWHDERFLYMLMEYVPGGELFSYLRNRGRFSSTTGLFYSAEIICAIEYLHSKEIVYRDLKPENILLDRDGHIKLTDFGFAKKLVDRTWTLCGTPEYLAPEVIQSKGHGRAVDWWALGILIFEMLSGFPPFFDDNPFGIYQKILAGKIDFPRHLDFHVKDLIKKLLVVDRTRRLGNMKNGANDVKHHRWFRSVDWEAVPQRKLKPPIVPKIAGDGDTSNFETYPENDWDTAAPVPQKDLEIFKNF
Leukocyte tyrosine kinase receptor, sequence (P29376 whole entry): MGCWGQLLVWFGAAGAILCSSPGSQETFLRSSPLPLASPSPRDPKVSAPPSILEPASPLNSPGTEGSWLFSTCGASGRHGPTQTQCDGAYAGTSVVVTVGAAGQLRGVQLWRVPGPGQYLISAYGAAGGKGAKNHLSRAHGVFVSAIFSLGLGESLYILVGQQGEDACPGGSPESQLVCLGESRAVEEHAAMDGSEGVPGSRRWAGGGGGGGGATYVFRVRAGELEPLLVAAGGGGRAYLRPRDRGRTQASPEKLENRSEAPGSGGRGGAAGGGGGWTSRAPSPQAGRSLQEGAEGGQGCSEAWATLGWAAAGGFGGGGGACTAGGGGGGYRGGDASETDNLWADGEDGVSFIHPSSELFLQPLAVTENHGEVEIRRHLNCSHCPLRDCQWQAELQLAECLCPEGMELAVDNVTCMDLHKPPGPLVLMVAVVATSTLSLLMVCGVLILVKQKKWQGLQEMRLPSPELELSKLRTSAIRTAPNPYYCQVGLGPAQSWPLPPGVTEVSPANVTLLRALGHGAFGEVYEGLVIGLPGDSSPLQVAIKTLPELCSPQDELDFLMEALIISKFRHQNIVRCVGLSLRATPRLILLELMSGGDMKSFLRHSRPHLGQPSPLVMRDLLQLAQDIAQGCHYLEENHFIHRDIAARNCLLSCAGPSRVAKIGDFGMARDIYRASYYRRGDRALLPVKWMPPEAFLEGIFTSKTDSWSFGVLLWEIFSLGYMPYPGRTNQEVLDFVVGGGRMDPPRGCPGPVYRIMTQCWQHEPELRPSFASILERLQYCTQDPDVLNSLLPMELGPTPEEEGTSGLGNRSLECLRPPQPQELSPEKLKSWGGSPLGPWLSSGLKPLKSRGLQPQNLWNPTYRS
Vascular endothelial growth factor receptor 2, sequence (P35968 whole entry): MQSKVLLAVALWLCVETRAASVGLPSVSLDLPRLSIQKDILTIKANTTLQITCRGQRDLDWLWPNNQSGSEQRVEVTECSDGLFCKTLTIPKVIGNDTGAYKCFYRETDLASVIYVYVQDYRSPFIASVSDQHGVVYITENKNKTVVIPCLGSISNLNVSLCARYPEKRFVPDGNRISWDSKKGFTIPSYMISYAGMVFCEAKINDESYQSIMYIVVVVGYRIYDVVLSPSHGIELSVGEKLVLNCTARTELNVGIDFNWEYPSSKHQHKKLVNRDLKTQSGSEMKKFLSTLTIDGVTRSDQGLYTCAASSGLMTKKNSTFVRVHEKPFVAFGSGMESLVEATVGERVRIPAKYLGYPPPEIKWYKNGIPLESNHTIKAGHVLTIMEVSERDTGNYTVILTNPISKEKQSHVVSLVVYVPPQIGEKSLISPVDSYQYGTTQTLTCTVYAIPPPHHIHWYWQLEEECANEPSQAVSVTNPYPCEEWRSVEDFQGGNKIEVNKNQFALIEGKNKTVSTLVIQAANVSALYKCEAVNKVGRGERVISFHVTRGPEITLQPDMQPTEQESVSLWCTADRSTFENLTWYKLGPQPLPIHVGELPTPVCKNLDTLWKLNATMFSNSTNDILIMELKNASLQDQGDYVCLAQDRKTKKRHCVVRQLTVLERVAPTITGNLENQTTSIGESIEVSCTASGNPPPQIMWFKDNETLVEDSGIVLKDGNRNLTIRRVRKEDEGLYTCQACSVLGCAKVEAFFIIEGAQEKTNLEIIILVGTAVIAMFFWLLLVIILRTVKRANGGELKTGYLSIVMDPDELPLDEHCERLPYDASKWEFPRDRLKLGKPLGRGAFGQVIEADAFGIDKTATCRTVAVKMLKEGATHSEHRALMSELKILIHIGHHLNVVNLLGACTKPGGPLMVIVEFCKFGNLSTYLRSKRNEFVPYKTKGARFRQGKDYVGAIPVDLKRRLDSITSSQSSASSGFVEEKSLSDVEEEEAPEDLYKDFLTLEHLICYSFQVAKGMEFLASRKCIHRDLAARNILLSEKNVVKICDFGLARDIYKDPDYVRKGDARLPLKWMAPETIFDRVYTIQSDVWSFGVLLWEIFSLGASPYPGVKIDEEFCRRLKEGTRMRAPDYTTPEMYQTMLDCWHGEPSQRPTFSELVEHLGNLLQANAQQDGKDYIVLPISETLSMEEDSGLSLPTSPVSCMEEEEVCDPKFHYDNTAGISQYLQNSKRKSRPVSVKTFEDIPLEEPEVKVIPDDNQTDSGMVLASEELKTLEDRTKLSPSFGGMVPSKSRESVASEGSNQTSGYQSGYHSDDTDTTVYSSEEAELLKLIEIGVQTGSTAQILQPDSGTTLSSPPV
Serine/threonine-protein kinase Chk1, sequence (O14757 whole entry): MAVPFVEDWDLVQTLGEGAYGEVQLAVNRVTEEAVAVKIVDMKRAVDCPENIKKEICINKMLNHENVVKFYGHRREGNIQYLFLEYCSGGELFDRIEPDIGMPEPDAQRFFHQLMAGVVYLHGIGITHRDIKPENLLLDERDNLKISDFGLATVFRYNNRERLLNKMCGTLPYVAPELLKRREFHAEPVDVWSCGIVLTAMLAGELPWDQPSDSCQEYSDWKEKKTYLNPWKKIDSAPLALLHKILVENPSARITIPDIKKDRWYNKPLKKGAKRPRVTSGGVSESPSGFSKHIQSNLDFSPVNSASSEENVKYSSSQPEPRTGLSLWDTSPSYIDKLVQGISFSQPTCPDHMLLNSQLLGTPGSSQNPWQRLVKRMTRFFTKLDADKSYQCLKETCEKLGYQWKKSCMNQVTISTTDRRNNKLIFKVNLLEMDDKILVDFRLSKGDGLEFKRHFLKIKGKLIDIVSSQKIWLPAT
LIM domain kinase 1, sequence (P53667 whole entry, the tested form may be a part): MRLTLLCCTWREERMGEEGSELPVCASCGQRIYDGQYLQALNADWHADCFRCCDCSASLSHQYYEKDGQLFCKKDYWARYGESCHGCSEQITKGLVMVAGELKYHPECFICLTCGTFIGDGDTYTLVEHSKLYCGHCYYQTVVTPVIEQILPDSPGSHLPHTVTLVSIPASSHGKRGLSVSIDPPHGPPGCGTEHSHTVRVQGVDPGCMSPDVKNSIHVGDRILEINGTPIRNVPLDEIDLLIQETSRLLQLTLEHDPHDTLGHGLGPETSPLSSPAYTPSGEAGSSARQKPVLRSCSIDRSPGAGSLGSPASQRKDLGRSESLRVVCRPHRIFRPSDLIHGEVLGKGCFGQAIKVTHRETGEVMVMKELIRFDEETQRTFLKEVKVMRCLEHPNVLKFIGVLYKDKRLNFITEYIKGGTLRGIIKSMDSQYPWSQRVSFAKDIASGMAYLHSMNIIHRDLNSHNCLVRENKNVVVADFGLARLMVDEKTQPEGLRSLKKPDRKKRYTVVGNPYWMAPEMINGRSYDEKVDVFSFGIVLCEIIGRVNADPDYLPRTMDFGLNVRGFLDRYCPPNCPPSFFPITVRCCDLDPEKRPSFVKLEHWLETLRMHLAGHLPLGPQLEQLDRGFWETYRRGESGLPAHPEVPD
Glycogen synthase kinase-3 beta, sequence (P49841 whole entry): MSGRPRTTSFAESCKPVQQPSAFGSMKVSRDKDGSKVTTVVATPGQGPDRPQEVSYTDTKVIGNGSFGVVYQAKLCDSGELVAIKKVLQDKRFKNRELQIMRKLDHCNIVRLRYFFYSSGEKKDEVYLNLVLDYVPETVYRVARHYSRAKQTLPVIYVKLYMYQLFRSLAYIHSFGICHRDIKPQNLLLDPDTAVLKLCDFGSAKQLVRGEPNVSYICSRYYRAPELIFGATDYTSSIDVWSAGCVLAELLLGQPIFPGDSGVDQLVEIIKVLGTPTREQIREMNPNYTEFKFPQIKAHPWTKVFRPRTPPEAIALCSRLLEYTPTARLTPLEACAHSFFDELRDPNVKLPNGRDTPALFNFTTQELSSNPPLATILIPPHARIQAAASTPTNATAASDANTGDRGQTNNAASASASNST

With `CN1CCC(Oc2ccccc2Sc2ccc(C(F)(F)F)cc2)CC1`, the IC50 (on Melanocortin receptor 4; in [1]) was > 64600 nM (inactive) throughout.

With `CC(=O)N1c2ccc(S(=O)(=O)N3CCC(C(=O)N4CCN(c5ccc(Cl)cc5)CC4)CC3)cc2CC1C` (stereo unspecified), the AC50 (usually the midpoint of the concentration-response curve, whichever way the signal moves) is 1010 nM (active) in the experiment on HEK293 and 108000 nM (active) in experiment [2].

Regarding `CCCCNc1c(-c2ccc3[nH]ncc3c2)nc2ncccn12`, the inhibition constant (Ki) – broadly, a measure of affinity in units of concentration, obtained from inhibition or displacement – in [3] is 501 nM (active); in [4], 10 nM (active); in experiment [5], 100 nM (active); in experiment [6], > 10000 nM (inactive); in experiment [7] it was 15.8 nM (active); in [8] it was 1000 nM (active). Further, the Ki in experiment [9] was 3.98 nM (active); in experiment [10], 1580 nM (active).

For the molecule `CC(O)CN(CC(C)O)c1ccc2c(c1)Cc1cc([N+](=O)[O-])ccc1-2` (stereo unspecified), the IC50 (commonly the concentration at which inhibition is half-maximal) with CHO was > 49800 nM (inactive); at Beta Lactamase, 5090 nM (active). The EC50 in [11] is 870 nM (active).

On to `Clc1ccc(/C=N/Nc2cc(N3CCOCC3)nc(N3CCOCC3)n2)c(Cl)c1`, for which the IC50 (in [12]; at Caspase-3; in [13]; in experiment [14]) was > 99000 nM (inactive) each time.

For the molecule `Clc1ccc2c(c1)NC1(CCCCC1)N2`, the results for the Ki (at LIM domain kinase 1; in experiment [15]) were 2000 nM (active) and 2510 nM (active), respectively.

Regarding `CC(=O)c1c(C)c2cnc(Nc3ccc(N4CCNCC4)cn3)nc2n(C2CCCC2)c1=O` [PALBOCICLIB], the Ki in [16] is > 2510 nM (inactive); in experiment [17], > 2000 nM (inactive); in experiment [18] it was 2510 nM (active); in [19], 2510 nM (active); in [20] it was > 2510 nM (inactive).
